Assay [1] concerns the target T1, Inhibitor of nuclear factor kappa-B kinase subunit beta (Homo sapiens) (UniProt O14920).
T1 sequence (whole entry): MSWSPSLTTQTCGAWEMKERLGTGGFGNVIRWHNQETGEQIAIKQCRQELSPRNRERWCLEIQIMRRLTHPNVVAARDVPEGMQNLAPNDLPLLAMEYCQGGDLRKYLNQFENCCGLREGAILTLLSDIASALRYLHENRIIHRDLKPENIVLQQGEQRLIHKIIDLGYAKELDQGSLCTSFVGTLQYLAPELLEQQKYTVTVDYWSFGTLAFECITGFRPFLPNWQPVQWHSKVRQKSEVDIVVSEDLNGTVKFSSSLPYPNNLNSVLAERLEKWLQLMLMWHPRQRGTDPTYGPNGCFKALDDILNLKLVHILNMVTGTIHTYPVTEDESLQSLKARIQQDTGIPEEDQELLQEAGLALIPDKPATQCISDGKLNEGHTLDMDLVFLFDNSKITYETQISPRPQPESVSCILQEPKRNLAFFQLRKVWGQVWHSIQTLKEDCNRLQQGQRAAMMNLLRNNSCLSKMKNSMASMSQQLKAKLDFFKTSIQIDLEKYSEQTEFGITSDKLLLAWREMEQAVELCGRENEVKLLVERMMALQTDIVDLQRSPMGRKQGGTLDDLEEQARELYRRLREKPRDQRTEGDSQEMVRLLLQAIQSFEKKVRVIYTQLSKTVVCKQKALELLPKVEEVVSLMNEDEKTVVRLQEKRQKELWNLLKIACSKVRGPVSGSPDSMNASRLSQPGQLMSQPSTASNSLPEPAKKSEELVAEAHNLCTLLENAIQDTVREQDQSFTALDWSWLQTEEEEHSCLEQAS
As to conditions: at 1 µM.

Assay [2] concerns the target T2, Inhibitor of nuclear factor kappa-B kinase subunit epsilon (Homo sapiens) (UniProt Q14164).
T2 sequence (whole entry): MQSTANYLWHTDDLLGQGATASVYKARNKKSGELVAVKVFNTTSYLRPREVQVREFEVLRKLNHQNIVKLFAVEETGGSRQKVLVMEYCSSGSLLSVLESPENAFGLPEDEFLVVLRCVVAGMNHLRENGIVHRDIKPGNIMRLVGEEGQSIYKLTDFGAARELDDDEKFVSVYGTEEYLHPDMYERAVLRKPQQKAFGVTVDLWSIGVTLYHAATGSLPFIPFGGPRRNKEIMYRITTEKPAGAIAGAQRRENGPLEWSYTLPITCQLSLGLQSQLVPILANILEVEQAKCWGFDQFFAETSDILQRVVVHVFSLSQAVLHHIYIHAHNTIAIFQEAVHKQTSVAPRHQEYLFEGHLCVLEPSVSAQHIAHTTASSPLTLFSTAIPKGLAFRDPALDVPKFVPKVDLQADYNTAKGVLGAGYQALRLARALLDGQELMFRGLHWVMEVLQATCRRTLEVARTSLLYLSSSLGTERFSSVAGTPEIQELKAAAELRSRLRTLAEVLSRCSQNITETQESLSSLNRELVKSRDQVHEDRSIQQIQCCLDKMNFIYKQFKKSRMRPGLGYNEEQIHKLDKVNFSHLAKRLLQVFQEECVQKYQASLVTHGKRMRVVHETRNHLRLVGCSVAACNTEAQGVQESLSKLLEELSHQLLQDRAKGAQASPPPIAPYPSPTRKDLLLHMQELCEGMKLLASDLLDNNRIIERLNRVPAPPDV
The note with it: at 1 µM.

The target of assay [3] is T3, Tyrosine-protein kinase Mer (Homo sapiens) (UniProt Q12866).
T3 sequence (whole entry): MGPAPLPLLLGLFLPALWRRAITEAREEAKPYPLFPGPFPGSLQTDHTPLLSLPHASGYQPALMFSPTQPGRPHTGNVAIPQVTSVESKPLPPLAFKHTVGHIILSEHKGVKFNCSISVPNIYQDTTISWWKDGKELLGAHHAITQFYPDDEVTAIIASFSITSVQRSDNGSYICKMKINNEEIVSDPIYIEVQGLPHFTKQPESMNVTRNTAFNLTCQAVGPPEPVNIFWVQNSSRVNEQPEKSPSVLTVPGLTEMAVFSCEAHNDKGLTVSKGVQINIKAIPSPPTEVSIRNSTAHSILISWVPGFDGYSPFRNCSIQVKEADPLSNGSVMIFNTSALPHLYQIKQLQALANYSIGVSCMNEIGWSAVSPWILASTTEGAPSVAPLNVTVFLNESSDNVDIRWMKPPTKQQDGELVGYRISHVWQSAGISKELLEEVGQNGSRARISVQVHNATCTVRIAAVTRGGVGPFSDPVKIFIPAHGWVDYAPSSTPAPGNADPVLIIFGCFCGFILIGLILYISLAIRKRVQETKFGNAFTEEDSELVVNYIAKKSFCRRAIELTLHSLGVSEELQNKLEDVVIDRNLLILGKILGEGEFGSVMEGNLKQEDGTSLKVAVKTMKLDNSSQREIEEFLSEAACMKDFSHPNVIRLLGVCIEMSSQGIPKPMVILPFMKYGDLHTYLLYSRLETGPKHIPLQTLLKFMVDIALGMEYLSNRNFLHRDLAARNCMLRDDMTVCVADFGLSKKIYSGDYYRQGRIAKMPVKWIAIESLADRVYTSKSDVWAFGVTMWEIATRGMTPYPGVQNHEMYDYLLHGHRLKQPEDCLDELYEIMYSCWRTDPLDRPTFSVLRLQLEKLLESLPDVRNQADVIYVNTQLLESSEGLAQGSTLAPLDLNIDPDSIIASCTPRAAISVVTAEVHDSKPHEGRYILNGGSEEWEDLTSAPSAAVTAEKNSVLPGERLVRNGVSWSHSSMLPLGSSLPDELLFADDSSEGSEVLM
The note with it: at 10 µM.

Several values for one entry are separate records, joined by “and”; a condition that tells them apart may be missing. Equal entries are not always repeated.

By inhibition is commonly meant the drop in the measured response relative to a control, in per cent. With `CCn1c(-c2nonc2N)nc2c(C#CC(C)(C)O)nc(OC[C@@H](N)c3ccccc3)cc21`, the inhibition is -6% and -5% in assay [1]; 39% and 40% in assay [2]; -1% in assay [3].
For the molecule `CCn1c(-c2nonc2N)nc2ccc(F)cc21`, the inhibition in assay [1] is 5% and 1%; in assay [2], -1%; in assay [3], -4%.
`COc1cc2ncn(-c3cc(OCc4ccccc4Cl)c(C(N)=O)s3)c2cc1OC`: the inhibition in assay [1] was 2% and 1%; in assay [2], 8% and 7%; in assay [3], 83%.
For the molecule `Cc1cc(O)cc(C)c1/C=C/c1cncc(C(=O)OC(C)(C)C)c1`, the inhibition in assay [1] was -1% and -2%; in assay [2] it was -2% and 0%; in assay [3] it was -2%.
With `Cc1ccc2c(-c3ccnc(Nc4cccc(C(F)(F)F)c4)n3)c(-c3ccccc3)nn2n1`, the inhibition is -3% and -6% in assay [1]; 1% and 3% in assay [2]; 4% in assay [3].
As to `COc1cc2ncnc(Nc3ccc(C)c(O)c3)c2cc1OC`, the inhibition in assay [1] is -7% and -4%; in assay [2] it was -1% and -2%; in assay [3], -10%.
Regarding `COc1cc(C=NNc2ncnc3c2cnn3Cc2ccccc2)ccc1O`, the inhibition in assay [1] is -7%; in assay [2] it was 1% and -1%; in assay [3] it was 5%.
Take `COc1cc(Nc2ncc3c(C)nc(-c4cccc(Oc5ccccc5)c4)n3n2)cc(OC)c1OC`: the inhibition was -4% and 0% in assay [1]; 59% in assay [2]; -6% in assay [3].
With `CNC(=O)c1cccc(C#Cc2cncnc2Nc2ccc(OCc3cccc(F)c3)c(Cl)c2)c1`, the inhibition was -2% and 0% in assay [1]; 7% and 1% in assay [2]; 61% in assay [3].
For the molecule `[O-][S+]1CCN(Cc2ccc(-c3ccc4ncnc(Nc5ccc(OCc6ccccc6)c(Cl)c5)c4c3)o2)CC1`, the inhibition in assay [1] is -2% and 0%; in assay [2] it was -3%; in assay [3] it was -5%.
On to `CCc1nccc2c1nc(-c1nonc1N)n2CC`, for which the inhibition was 0% and -3% in assay [1]; -3% and 0% in assay [2]; -3% in assay [3].
For `COc1ccccc1-c1cc(/C=C2\C(=O)Nc3ncc(Br)cc32)cc(Br)c1O`, the inhibition in assay [1] is -4% and -2%; in assay [2], 10%; in assay [3], -2%.
Take `CCS(=O)(=O)c1ccc(OC)c(Nc2ncc(-c3cccc(-c4ccccc4F)c3)o2)c1`: the inhibition in assay [1] was 1% and 2%; in assay [2], 10% and 5%; in assay [3], 79%.
As for `Cc1ccc(C(=O)NC(C)C)cc1-c1ccc(C(=O)NCC2CC2)cc1`, the inhibition was -1% and 3% in assay [1]; 0% and -2% in assay [2]; -2% in assay [3].
Consider `Cn1c(-c2nonc2N)nc2cnccc21`, for which the inhibition in assay [1] is -4% and -2%; in assay [2] it was 2% and 3%; in assay [3], -9%.
`COc1cc(/C=N/Nc2ncnc3[nH]ncc23)ccc1O`: the inhibition is -10% in assay [1], 20% in assay [2] and 6% in assay [3].
On to `CN1CCC(n2cnc(-c3ccc(F)cc3)c2-c2ccnc(NCCO)n2)CC1`, for which the inhibition in assay [1] is -3% and -4%; in assay [2], -3%; in assay [3] it was -2%.
In the case of `FC(F)(F)c1ccc(-c2nn3ncccc3c2-c2ccnc(Nc3ccc4c(c3)OCCO4)n2)cc1`, the inhibition in assay [1] was -1% and -3%; in assay [2], -2%; in assay [3], -6%.
Turning to `Fc1ccc(-c2nc3n(c2-c2ccncc2)CCS3)cc1`, the inhibition in assay [1] was -2% and 0%; in assay [2], -1% and -2%; in assay [3], 73%.
`COc1cc2c(cc1Nc1nc(Nc3cccc(F)c3C(N)=O)c3cc[nH]c3n1)N(C(=O)CN1CCN(C(C)C)CC1)CC2`: the inhibition in assay [1] was -1% and -3%; in assay [2] it was -1% and -2%; in assay [3], -7%.
In the case of `COC(=O)Nc1nc2ccc(Sc3ccc(NC(=O)Nc4cc(C(F)(F)F)ccc4F)cc3)cc2[nH]1`, the inhibition in assay [1] is -3%; in assay [2] it was -2% and -1%; in assay [3] it was 21%.
Consider `CCOc1ccc2c(-c3ccnc(Nc4cc(OC)cc(C(F)(F)F)c4)n3)cnn2n1`, for which the inhibition in assay [1] was -1%; in assay [2], 32% and 31%; in assay [3], -5%.
Take `COc1c(C(N)=O)cc(-c2ccc(Cl)cc2)cc1-c1ccc(S(N)(=O)=O)cc1`: the inhibition is 1% in assay [1]; -1% and 0% in assay [2]; -6% in assay [3].
`O=C(Nc1n[nH]c2cc(-c3cc(F)ccc3F)ccc12)C1CC1`: the inhibition was -2% and -5% in assay [1]; -3% in assay [2]; 6% in assay [3].
With `CN1CCN(C(=O)c2ccc(NC(=O)Nc3ccc(N(C)c4ccnc(Nc5ccc(CS(C)(=O)=O)cc5)n4)cc3)cc2)CC1`, the inhibition in assay [1] is -5% and -8%; in assay [2] it was 26% and 22%; in assay [3] it was 0%.
Regarding `O=C1NC(=O)C(c2cccc(Cl)c2)=C1Nc1ccc(Cl)c(C(=O)O)c1`, the inhibition in assay [1] is -8% and -3%; in assay [2], 5%; in assay [3] it was 27%.
For `CNC(=O)c1sc(-n2cnc3cc(OC)c(OC)cc32)cc1OCc1ccccc1C(F)(F)F`, the inhibition in assay [1] is -5% and -3%; in assay [2], -3% and -2%; in assay [3] it was 4%.
As for `N#Cc1c(NC(=O)c2cccc3ccccc23)sc2c1CCCC2`, the inhibition is -2% and 0% in assay [1]; -2% and -3% in assay [2]; 78% in assay [3].
Turning to `Fc1cccc(COc2ccc(Nc3ncnc4sc(-c5cccs5)cc34)cc2Cl)c1`, the inhibition was -2% and -3% in assay [1]; -2% in assay [2]; -10% in assay [3].
In the case of `NS(=O)(=O)c1ccc(N/N=C2\C(=O)Nc3ccc(C(=O)NCCc4c[nH]cn4)cc32)cc1`, the inhibition was -4% and -2% in assay [1]; 17% and 15% in assay [2]; -1% in assay [3].
Turning to `COc1ccc(-c2coc3ncnc(N)c23)cc1`, the inhibition in assay [1] was -3% and -1%; in assay [2], -4%; in assay [3], -3%.
Regarding `NC(=O)Cc1ccccc1Oc1nccc(-c2c(-c3ccc(F)cc3)ncn2C2CCNCC2)n1`, the inhibition in assay [1] is -1%; in assay [2], 0% and -1%; in assay [3], 71%.

(Values after ChEMBL document CHEMBL2007661, “Compounds: GSK PKIS; Assays: UNC Frye lab” (2012).)
